What all share (assay type): cell-based
Test [1] concerns the target T1, protein kinases (human kinome) (Homo sapiens, UniProt O14965).
T1 sequence (O14965 1-403): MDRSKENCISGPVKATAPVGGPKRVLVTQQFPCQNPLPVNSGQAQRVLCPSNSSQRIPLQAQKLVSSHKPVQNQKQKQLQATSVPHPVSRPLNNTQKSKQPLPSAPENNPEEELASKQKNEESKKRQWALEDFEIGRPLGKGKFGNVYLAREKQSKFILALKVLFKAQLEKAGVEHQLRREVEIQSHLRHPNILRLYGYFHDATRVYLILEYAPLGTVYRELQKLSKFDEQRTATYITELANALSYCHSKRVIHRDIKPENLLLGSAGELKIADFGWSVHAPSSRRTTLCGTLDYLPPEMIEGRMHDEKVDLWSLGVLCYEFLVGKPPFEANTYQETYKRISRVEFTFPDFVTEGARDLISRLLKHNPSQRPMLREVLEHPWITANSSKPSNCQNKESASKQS

Test [2] deals with T2, protein kinases (human kinome) (Homo sapiens, UniProt P33981).
T2 sequence (P33981 1-857): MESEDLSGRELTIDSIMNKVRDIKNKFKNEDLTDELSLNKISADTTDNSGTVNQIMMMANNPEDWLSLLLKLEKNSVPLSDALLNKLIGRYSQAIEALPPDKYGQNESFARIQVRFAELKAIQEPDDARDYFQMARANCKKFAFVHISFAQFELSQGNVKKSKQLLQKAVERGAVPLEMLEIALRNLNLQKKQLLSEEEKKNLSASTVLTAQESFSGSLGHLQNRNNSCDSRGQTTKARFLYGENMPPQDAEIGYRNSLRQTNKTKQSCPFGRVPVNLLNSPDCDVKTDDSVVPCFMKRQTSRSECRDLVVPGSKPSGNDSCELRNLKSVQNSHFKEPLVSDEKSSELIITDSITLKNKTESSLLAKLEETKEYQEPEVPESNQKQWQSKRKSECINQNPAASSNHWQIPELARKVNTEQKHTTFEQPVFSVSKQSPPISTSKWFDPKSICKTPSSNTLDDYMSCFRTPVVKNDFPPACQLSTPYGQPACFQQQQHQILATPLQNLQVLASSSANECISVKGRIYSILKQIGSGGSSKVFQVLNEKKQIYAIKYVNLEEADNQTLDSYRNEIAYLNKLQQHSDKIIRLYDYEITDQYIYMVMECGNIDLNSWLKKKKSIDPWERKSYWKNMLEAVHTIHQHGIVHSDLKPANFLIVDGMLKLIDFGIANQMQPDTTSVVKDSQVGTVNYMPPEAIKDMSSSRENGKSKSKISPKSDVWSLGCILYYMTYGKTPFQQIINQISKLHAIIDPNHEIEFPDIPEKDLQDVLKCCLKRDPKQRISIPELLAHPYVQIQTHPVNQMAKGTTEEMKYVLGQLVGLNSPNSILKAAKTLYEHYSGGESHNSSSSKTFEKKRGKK
The following applies: experiment wp164.

The target of test [3] is protein kinases (human kinome) (Homo sapiens, UniProt P50750). The following applies: experiment wp164.
Chain of protein kinases (human kinome) (Homo sapiens, UniProt P50750) (P50750 whole entry): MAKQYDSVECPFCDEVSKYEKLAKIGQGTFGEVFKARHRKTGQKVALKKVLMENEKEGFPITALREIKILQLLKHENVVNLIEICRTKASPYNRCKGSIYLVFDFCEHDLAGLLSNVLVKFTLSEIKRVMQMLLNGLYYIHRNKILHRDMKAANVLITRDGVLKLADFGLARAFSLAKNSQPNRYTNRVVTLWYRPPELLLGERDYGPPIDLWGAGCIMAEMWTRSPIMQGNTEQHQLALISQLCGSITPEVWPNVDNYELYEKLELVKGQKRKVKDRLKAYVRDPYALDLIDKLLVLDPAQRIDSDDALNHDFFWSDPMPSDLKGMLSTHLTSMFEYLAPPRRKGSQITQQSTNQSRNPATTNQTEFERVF
For test [4], the target named is protein kinases (human kinome) (Homo sapiens, UniProt Q00534). The following applies: for logFC CDK6: CDK6 (Q00534), direction down; for logFC of CDK6 (Q00534): down.
Chain of protein kinases (human kinome) (Homo sapiens, UniProt Q00534) (Q00534 whole entry): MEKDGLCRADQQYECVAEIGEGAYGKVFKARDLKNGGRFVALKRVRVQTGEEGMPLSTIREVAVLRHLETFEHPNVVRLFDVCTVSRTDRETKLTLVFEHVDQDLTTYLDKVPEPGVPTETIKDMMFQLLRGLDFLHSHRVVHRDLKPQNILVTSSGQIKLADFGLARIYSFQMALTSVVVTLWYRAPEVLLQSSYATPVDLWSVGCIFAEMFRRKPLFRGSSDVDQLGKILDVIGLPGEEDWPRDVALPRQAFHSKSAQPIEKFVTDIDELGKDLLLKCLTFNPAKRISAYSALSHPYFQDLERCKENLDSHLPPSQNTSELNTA
Test [5] addresses protein kinases (human kinome) (Homo sapiens, UniProt Q2M2I8).
Test [6] concerns the target protein kinases (human kinome) (Homo sapiens, UniProt Q96GD4). The following applies: experiment wp164.
Test [7] addresses protein kinases (human kinome) (Homo sapiens, UniProt Q9HBU6). The following applies: protein ETNK1 (Q9HBU6-1); experiment wp088; down.
The target in test [8] is T3, protein kinases (human kinome) (Homo sapiens, UniProt Q9UEE5).
T3 sequence (Q9UEE5 1-414): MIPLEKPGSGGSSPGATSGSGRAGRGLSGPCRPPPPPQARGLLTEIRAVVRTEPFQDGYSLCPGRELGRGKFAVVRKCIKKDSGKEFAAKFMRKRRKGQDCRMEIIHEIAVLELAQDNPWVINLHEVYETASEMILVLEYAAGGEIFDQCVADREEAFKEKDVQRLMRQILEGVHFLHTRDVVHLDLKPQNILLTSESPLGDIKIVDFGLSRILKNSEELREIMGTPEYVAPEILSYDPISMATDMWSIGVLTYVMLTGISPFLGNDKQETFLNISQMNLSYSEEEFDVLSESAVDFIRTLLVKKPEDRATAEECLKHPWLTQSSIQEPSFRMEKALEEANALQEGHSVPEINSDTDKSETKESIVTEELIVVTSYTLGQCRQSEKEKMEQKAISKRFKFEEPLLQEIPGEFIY
The following applies: STK17A Q9UEE5; experiment wp088.

Test [9] has as its system protein kinases (human kinome).
[10] abbreviates: AURKB Q96GD4-5, experiment wp088.

The results in this text go back to patent US20240269139A1, “COMPOUNDS FOR TARGETED PROTEIN DEGRADATION OF KINASES” (DANA-FARBER CANCER INSTITUTE, INC., priority 2020, published 2024).

Where two headings read alike, the source gives them in different places.

Chain of protein kinases (human kinome) (Homo sapiens, UniProt Q2M2I8) (Q2M2I8 whole entry): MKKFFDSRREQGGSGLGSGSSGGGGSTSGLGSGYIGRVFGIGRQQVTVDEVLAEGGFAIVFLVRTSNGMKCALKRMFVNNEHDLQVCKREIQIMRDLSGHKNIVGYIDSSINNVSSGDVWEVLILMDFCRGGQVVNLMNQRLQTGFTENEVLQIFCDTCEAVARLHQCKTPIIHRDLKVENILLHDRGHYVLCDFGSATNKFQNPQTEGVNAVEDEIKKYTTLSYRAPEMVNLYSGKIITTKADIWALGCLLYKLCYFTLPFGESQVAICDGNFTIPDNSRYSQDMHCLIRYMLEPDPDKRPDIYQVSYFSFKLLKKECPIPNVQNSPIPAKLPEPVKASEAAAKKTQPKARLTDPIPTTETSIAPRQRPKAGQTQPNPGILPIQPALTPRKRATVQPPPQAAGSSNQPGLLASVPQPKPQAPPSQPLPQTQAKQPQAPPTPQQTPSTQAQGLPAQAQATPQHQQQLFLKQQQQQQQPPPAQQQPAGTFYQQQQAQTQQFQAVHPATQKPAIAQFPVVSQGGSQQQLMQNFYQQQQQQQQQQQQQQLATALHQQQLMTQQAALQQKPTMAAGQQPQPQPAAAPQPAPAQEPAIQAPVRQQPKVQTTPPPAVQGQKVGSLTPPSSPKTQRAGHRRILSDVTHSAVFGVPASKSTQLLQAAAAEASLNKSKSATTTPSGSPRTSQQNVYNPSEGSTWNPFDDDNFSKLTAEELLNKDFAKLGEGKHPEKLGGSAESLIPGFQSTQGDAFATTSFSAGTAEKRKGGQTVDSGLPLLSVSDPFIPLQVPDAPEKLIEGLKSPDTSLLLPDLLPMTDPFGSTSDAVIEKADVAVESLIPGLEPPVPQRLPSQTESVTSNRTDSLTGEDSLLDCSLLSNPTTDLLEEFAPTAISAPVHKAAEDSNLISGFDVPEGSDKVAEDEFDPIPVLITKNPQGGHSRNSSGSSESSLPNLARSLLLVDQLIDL
Chain of protein kinases (human kinome) (Homo sapiens, UniProt Q96GD4) (Q96GD4 whole entry): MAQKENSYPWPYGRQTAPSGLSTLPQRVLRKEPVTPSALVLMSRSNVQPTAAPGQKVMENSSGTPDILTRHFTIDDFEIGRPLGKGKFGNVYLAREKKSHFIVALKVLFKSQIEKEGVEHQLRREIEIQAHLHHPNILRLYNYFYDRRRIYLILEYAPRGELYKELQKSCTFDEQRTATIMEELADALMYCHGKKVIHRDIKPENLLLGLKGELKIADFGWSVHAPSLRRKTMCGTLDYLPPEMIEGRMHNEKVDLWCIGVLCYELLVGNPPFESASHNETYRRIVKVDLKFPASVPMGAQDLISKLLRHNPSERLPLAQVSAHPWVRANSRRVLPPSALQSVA
Chain of protein kinases (human kinome) (Homo sapiens, UniProt Q9HBU6) (Q9HBU6 whole entry): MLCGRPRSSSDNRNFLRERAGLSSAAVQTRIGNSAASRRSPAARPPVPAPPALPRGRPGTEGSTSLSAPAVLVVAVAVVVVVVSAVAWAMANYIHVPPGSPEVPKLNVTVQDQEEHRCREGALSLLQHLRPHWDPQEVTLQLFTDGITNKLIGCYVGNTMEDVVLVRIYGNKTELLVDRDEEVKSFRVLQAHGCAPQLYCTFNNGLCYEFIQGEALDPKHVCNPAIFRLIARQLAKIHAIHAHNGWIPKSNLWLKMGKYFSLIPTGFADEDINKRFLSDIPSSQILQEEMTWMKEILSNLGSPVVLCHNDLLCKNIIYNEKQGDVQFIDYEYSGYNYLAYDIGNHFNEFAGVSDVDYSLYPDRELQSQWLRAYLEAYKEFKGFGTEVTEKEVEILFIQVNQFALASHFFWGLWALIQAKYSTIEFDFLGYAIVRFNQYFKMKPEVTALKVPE

As for `O=C(CCCCCCNC(=O)COc1cccc2c1C(=O)N(C1CCC(=O)NC1=O)C2=O)NCCOc1ccc(Nc2ncc3ccc(=O)n(C4CC5CCC4C5)c3n2)cc1` (centres unmarked) [SB1.G.194], the “logFC AURKA (O14965)” value in test [1] (experiment wp088) is −1.175; in test [1] (experiment wp164), −2.035. Further, the “logFC TTK” value in test [2] (Accession P33981) is given as −0.4279. Moreover, the “logFC TTK (P33981)” value in [2] is reported as −0.4279. Moreover, in [3], the “logFC CDK9 (P50750)” value is −0.8391. Further, the “logFC of CDK9 (P50750)” value in [3] is −0.8391. Moreover, the “logFC CDK6” value is recorded as −0.4731 in test [4] (experiment wp088) and −1.23 in test [4] (experiment wp164). The figures for the “logFC of CDK6 (Q00534)” value in [4] (Experiment wp088) and in test [4] (Experiment wp164) were −0.4731 and −1.23, respectively. Further, the “logFC AAK1” value was −0.3482 in test [5] (AAK1 (Q2M218-1), experiment wp088, down); −0.379 in test [5] (AAK1 (Q2M218-1), experiment wp164, down); −0.3482 in test [5] (AAK1, accession Q2M218-1, experiment wp088, direction of change down); −0.379 in test [5] (AAK1, accession Q2M218-1, experiment wp164, direction of change down). In addition, the “logFC AURKB” value is recorded as −0.4883 in test [6] (AURKB Q96GD4) and −0.3846 in test [9] (setting [10]). Further, the “logFC of AURKB (Q96GD4)” value in test [6] is −0.4883. Besides, the “logFC ETNK1” value in test [7] is recorded as −0.3662. Also, the logFC in test [8] is recorded as −0.6434; in test [9] (setting [10]) it was −0.3846. Besides, the “logFC STK17A” value in test [8] is recorded as −0.6434. For the same compound, the “logFC FGFR2 (P21802-11)” value in test [9] (Experiment wp088, direction of change down) is reported as −0.4804. The “logFC FGFR2” value in test [9] (protein FGFR2 (P21802-11), experiment wp088, down) is given as −0.4804.
